In ChEMBL document CHEMBL1150259, “Identification of Plasmodium falciparum spermidine synthase active site binders through structure-based virtual screening” (J Med Chem, 2008):
Calls of active or inactive are those of the source. The rule behind the calls is not given here.

Columns and labels:
[1] = biological target: T1, Spermidine synthase (Plasmodium falciparum) (UniProt Q9NFS5); test: Binding affinity to Plasmodium falciparum spermidine synthase by saturation transfer difference-NMR experiment
T1 sequence (whole entry): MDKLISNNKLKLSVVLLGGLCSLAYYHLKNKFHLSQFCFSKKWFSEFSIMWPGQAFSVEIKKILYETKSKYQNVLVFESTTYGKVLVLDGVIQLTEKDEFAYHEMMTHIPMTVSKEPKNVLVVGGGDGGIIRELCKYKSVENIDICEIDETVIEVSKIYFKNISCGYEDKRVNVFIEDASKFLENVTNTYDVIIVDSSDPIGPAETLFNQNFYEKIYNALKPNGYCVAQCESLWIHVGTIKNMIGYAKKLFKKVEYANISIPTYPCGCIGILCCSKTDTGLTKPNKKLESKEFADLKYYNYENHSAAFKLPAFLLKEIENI

[2] = biological target: T1, Spermidine synthase (Plasmodium falciparum); test: Binding affinity to Plasmodium falciparum spermidine synthase by saturation transfer difference-NMR experiment relative to methylthioadenosine
[3] = biological target: T2, Spermidine synthase (Plasmodium falciparum, UniProt Q9NFS5); test: Inhibition of Plasmodium falciparum spermidine synthase
T2 sequence (Q9NFS5 whole entry): T1 sequence (whole entry)

[4] = test system: Plasmodium falciparum; test: Growth inhibition of Plasmodium falciparum; assay type: functional, organism-based

Compound	Activity [1]	further results
NCCSC1CC(=O)N(c2ccc(F)cc2)C1=O (centres undefined)	inactive	–
O=C(CSc1nnc[nH]1)Nc1nccs1	inactive	–
CCCCc1nnc(NC(=O)CSc2nnc[nH]2)s1	inactive	–
O=C(c1ccc2cn[nH]c2c1)N1CCN(c2ccccn2)CC1	inactive	–
O=C(c1ccc2[nH]cnc2c1)N1CCN(C/C=C/c2ccccc2)CC1	Active	–
O=C(CSc1nccc(=O)[nH]1)NCc1ccco1	inactive	–
Nc1nnc(SCC(=O)NCC2CN(Cc3ccccc3)CCO2)s1 (centres undefined)	inactive	–
NCCCCCCCNC(=O)Cc1ncc(C(F)(F)F)cc1Cl	inactive	–
NC(=O)CSc1nc2ncnc(N)c2[nH]1	Active	Activity [2]: Active
O=C1C=C(NCCc2c[nH]cn2)CC1	inactive	–
NCCCCCc1nc2ccccc2[nH]1	–	Activity [2]: Active
O=C(C1CCCCN1)N1CCN(Cc2cccnc2)CC1 (centres undefined)	inactive	–
Nc1nnc(SCC(=O)NCc2ccc3c(c2)OCO3)[nH]1	inactive	–
O=C(CSc1nnc[nH]1)c1ccc2c(c1)OCCO2	inactive	–
Nc1ncnc2c1ncn2[C@@H]1O[C@H](CO)[C@@H](O)[C@H]1O	Active	Activity [2]: Active
Nc1nnc(SCC(=O)Nc2cccc(Oc3ccccc3)c2)[nH]1	Active	Activity [2]: inactive
Nc1nc(N)nc(SCC(=O)NCc2ccc(F)cc2)n1	inactive	–
NC(=O)c1ncn([C@@H]2O[C@H](CO)[C@@H](O)[C@H]2O)n1	inactive	–
N=c1c(N)c(O)ncn1CC(=O)c1ccc(I)cc1	inactive	–
CSC[C@H]1O[C@@H](n2cnc3c(N)ncnc32)[C@H](O)[C@@H]1O [METHYLTHIOADENOSINE]	–	IC50 [3]: 159 µM
CC1CCC(N)CC1 (centres undefined)	–	IC50 [3]: 1.4 µM; IC50 [4]: 34 µM
NCCCCCc1nnc(SCC(=O)Nc2cccc(Cl)c2)o1	inactive	–
Cn1c(SCC(=O)c2ccc3[nH]c(=O)oc3c2)nnc1-c1ccncc1	inactive	–
O=C(CSc1cnn[nH]1)Nc1ncccn1	inactive	–
O=C1NC(=S)NC(=O)C1=CNCCc1cnc[nH]1	inactive	–
